What was measured:
Conditions in all cases: 72 h
Vero E6 [1] = test: drug sensitivity score (DSS) for viability; higher = more toxic; extreme values may be limits of the assay
U2OS [2] = test: as above
HepG2 [3] = test: as above
Calu-3 [4] = test: as above
Caco-2 [5] = test: as above
U2OS [6] = test: relative viability EC50 (midpoint between 100% and the lowest measured viability); higher = less toxic
HepG2 [7] = test: as above
Calu-3 [8] = test: as above
Caco-2 [9] = test: as above
Vero E6 [10] = test: cell viability relative to DMSO; higher = less toxic
U2OS [11] = test: as above
HepG2 [12] = test: as above
Calu-3 [13] = test: as above
Caco-2 [14] = test: as above
Vero E6 [15] = test: relative viability EC50 (midpoint between 100% and the lowest measured viability); higher = less toxic

Structure (SMILES)	drug sensitivity score (Vero E6 [1])	drug sensitivity score (U2OS [2])	drug sensitivity score (HepG2 [3])	drug sensitivity score (Calu-3 [4])	drug sensitivity score (Caco-2 [5])	relative viability EC50 (U2OS [6])	relative viability EC50 (HepG2 [7])	relative viability EC50 (Calu-3 [8])	relative viability EC50 (Caco-2 [9])	cell viability (Vero E6 [10]; 1 nM)	cell viability (Vero E6 [10]; 10 nM)	cell viability (Vero E6 [10]; 100 nM)	cell viability (Vero E6 [10]; 1000 nM)	cell viability (Vero E6 [10]; 10000 nM)	cell viability (U2OS [11]; 1 nM)	cell viability (U2OS [11]; 10 nM)	cell viability (U2OS [11]; 100 nM)	cell viability (U2OS [11]; 1000 nM)	cell viability (U2OS [11]; 10000 nM)	cell viability (HepG2 [12]; 1 nM)	cell viability (HepG2 [12]; 10 nM)	cell viability (HepG2 [12]; 100 nM)	cell viability (HepG2 [12]; 1000 nM)	cell viability (HepG2 [12]; 10000 nM)	cell viability (Calu-3 [13]; 1 nM)	cell viability (Calu-3 [13]; 10 nM)	cell viability (Calu-3 [13]; 100 nM)	cell viability (Calu-3 [13]; 1000 nM)	cell viability (Calu-3 [13]; 10000 nM)	cell viability (Caco-2 [14]; 1 nM)	cell viability (Caco-2 [14]; 10 nM)	cell viability (Caco-2 [14]; 100 nM)	cell viability (Caco-2 [14]; 1000 nM)	cell viability (Caco-2 [14]; 10000 nM)	relative viability EC50 (Vero E6 [15])
CCc1ccc(C2=CC(C)(C)Sc3ccc(C#Cc4ccc(C(=O)O)cc4)cc32)cc1	6.1	0	2.9	0	0.6	> 10 µM	> 10 µM	> 10 µM	> 10 µM	98.5%	89.8%	81.2%	74.9%	80.6%	101%	102%	96.6%	104%	93.2%	94.7%	89.7%	83.7%	80.6%	90.1%	90.9%	113%	95.5%	94.6%	95.2%	100%	103%	97.7%	100%	79.4%	
CN(C)CCCn1cc(C2=C(c3c[nH]c4ccccc34)C(=O)NC2=O)c2ccccc21	2	1.2	4.5	1.1	0		2.6 µM		> 10 µM	101%	95.2%	98.3%	96.3%	68.8%	98.8%	103%	96.5%	101%	70.8%	94.7%	96.2%	102%	95.2%	31%	105%	94.2%	92%	107%	68.6%	91%	90.5%	94.1%	98%	89.3%	
Cc1c(N2C(=O)[C@@H]3[C@H](O)CCN3C2=O)ccc(C#N)c1Cl		0	0	0	0	> 10 µM	> 10 µM	> 10 µM	> 10 µM						94.8%	99.8%	98.6%	94.4%	97.1%	97.7%	95.4%	94%	93.8%	97.1%	106%	101%	97.4%	109%	105%	95.4%	100%	89.1%	93.1%	90.3%	
COc1cc(N)c(Cl)cc1C(=O)N[C@@H]1CCN(CCCOc2ccc(F)cc2)C[C@@H]1OC (racemic) [cisapride]		0	0	0	0	> 10 µM	> 10 µM	> 10 µM	> 10 µM						97.4%	101%	93.8%	98.3%	93.5%	99.7%	101%	96%	104%	102%	99.6%	101%	84%	107%	110%	99.8%	103%	100%	98.9%	90.3%	
O=C(OCCO)c1ccccc1O [2-hydroxyethyl-salicylate]		0	0	0	0	> 10 µM	> 10 µM	> 10 µM	> 10 µM						99.2%	102%	98.6%	104%	97.6%	103%	99.8%	108%	100%	89%	97.5%	95.5%	108%	108%	94.8%	114%	108%	100%	104%	93.3%	
CCC(O)(CC(N)=O)c1ccccc1 (stereo unspecified) [3-hydroxy-3-phenylpentanamide]		0	0	0	0	> 10 µM	> 10 µM	> 10 µM	> 10 µM						95%	99%	98.3%	104%	99%	95.9%	93%	107%	100%	98.1%	98.2%	106%	89.4%	103%	108%	96.1%	106%	102%	100%	95.8%	
CCOc1nc2c(N)ncnc2n1CC [ANR-94]		0	0	0	0	> 10 µM	> 10 µM	> 10 µM	> 10 µM						104%	96.2%	101%	101%	105%	102%	98.3%	97.3%	96.9%	93.2%	105%	95.1%	96.5%	95.9%	102%	102%	98.3%	92.1%	90.9%	95.1%	
Cc1ccc(NC(=O)c2cccc(C(C)(C)C#N)c2)cc1Nc1ccc2ncn(C)c(=O)c2c1 [AZ-628]	4.8	4.8	18.1		3.7	1.81 µM	0.148 µM			101%	102%	102%	84.2%	52.4%	98.7%	98.6%	93.2%	89.7%	43.3%	97.5%	102%	69.9%	22%	16.6%						95.8%	102%	98.2%	81.9%	63.8%	
O=C(NCCCNc1nc(Nc2cccc(NC(=O)N3CCCC3)c2)ncc1I)c1cccs1 [BX-795]	1.8	5.3	3.5	0	2.9	2.1 µM	3.26 µM	> 10 µM		97.8%	98.4%	97%	101%	61.7%	104%	99.3%	100%	90.9%	31.2%	96.9%	90.4%	96.7%	101%	34.7%	93.4%	97.3%	102%	107%	89.2%	98.2%	98%	105%	92.6%	63.7%	
Cc1cc(O)cc2c1O[C@](C)(CCC[C@H](C)CCC[C@H](C)CCCC(C)C)CC2 [D-delta-tocopherol]		0	0	0	0	> 10 µM	> 10 µM	> 10 µM	> 10 µM						97.7%	103%	96.9%	106%	98%	114%	110%	116%	103%	99.4%	89.4%	96.6%	84.8%	93.8%	79.4%	102%	109%	99.8%	103%	99.1%	
CC(=O)c1ccc2c(c1)[C@@H]1C=CC[C@@H]1[C@H](c1cc3c(cc1Br)OCO3)N2 [G-1]	5.8	2.5	3.1		2.4	3.38 µM	3.53 µM			102%	93.3%	95.8%	84.8%	37.1%	100%	98.2%	94.3%	102%	49.7%	95.4%	88.4%	111%	105%	36.4%						96.8%	93.4%	102%	98%	58.2%	1.57 µM
COc1cccc(OC)c1-c1cc(C(=O)N[C@@H](CC(C)C)C(=O)O)nn1-c1ccnc2cc(Cl)ccc12 [TC-NTR1-17]			0	0	0		> 10 µM	> 10 µM	> 10 µM											102%	106%	97%	106%	106%	117%	102%	93%	104%	104%	103%	99.6%	100%	91.7%	99.9%	
Cc1c(C(=O)Nc2ccc(N3CCC(N4CCOCC4)CC3)c(C#N)c2)cnn1-c1ccc(Cl)cc1 [Y-320]	0.8		7.6	2.2	2.4		1.42 µM			104%	104%	106%	104%	74.6%						106%	109%	105%	77.4%	23%	103%	103%	90.1%	89.6%	69.9%	104%	93.8%	103%	87.5%	74.9%	
C#Cc1cncc([C@@H]2CCCN2C)c1 [altinicline]		0	0	0	0	> 10 µM	> 10 µM	> 10 µM	> 10 µM						102%	91.9%	102%	97.4%	98.9%	98.5%	96.8%	106%	105%	93.5%	98.3%	99%	93.9%	102%	110%	101%	92.9%	102%	98.7%	97.7%	
Nc1c(Br)cc(Br)cc1CN[C@H]1CC[C@H](O)CC1 [ambroxol]		0	0	0.2	0	> 10 µM	> 10 µM	> 10 µM	> 10 µM						103%	99%	103%	101%	101%	102%	98.5%	99.6%	103%	87.5%	105%	101%	102%	91.8%	88.7%	100%	92.8%	98.5%	89.4%	97.5%	
C[C@H](c1ccc2ccc(OC3CCC(C(F)(F)F)CC3)c(C(F)(F)F)c2c1)N1C2CCC1CC(C(=O)O)C2 (stereo partly specified) [autotaxin-modulator-1]	0	0.1	1.8	0	0.7	> 10 µM		> 10 µM	> 10 µM	99.2%	103%	96.4%	93.8%	89%	93.3%	95.9%	94.3%	95.1%	83.7%	90.4%	91%	105%	96%	71.9%	114%	97.6%	100%	106%	96.2%	105%	91.2%	96.1%	96.6%	83.2%	> 10 µM
